The record followed here is patent US11759462B2, “Spirocyclic compounds as tryptophan hydroxylase inhibitors” (priority 2013, dated 2023).

pIC50: −log10 of the molar value. Like-named read-outs stand apart in the source and are kept apart here.

For the assay, the target named is T1, Recombinant human TPH1 (MBP tagged) (Homo sapiens, UniProt P17752).
T1 construct: cloning full length human TPH1 cDNA in to a bacterial pMAL-c5E expression vector; made in house; host or cells: E. coli BL21 (DE3)
T1 sequence (P17752 1-444): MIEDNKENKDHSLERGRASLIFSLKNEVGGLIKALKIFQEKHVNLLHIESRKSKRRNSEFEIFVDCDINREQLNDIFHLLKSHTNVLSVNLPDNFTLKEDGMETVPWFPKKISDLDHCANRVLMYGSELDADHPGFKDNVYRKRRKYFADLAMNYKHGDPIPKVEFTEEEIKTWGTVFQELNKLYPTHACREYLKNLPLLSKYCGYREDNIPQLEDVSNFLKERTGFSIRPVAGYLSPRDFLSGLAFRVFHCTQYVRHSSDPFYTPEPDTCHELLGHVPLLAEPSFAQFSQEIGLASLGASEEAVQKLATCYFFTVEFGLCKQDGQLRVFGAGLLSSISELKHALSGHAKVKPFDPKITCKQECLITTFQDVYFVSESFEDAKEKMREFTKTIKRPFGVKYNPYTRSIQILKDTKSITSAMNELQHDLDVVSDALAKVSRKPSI
Put plainly: TPH1 in vitro inhibition assay (kinetic fluorescence). It is filed as biochemical. The essentials:
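Final mix: 15 nM MBP-TPH1, 30 μM Trp, 36 μM 6-methyltetrahydropterin, 25 μM ferrous ammonium sulfate, 50 mM MES pH 7.1, 1% DMSO, room temperature.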

The mark [1] stands for this setting: read-out: TPH1 Range (TPH1 inhibition IC50).
Where [2] appears, read: TPH1 Range (TPH1 inhibition IC50).

For the molecule `Nc1nc(O[C@H](c2ccc(-c3ccc4sncc4c3)cc2)C(F)(F)F)cc(N2CCC3(CC2)CN[C@H](C(=O)O)C3)n1` [Example 55j, (S)-8-(2-amino-6-((R)-1-(4-(benzo[d]isothiazol-5-yl)phenyl)-2,2,2-trifluoroethoxy)pyrimidin-4-yl)-2,8-diazaspiro[4.5]decane-3-carboxylic acid], the pIC50 under setting [1] was 6.52 to 7.30.
Regarding `Nc1nc(O[C@H](c2ccc(-c3ccc4ncnn4c3)cc2)C(F)(F)F)cc(N2CCC3(CC2)CN[C@H](C(=O)O)C3)n1` [Example 55l, (S)-8-(6-((R)-1-(4-([1,2,4]triazolo[1,5-a]pyridin-6-yl)phenyl)-2,2,2-trifluoroethoxy)-2-aminopyrimidin-4-yl)-2,8-diazaspiro[4.5]decane-3-carboxylic acid], under setting [1], the pIC50 was 6.52 to 7.30.
Take `Nc1nc(O[C@H](c2ccc(-c3ccc4ccccc4c3)cc2)C(F)(F)F)cc(N2CCC3(CC2)CN[C@H](C(=O)O)C3)n1` [Example 55m, (S)-8-(2-amino-6-((R)-2,2,2-trifluoro-1-(4-(naphthalen-2-yl)phenyl)ethoxy)pyrimidin-4-yl)-2,8-diazaspiro[4.5]decane-3-carboxylic acid]: under setting [1], the pIC50 was more than 7.30.
On to `COc1cc(-c2ccc([C@@H](Oc3cc(N4CCC5(CC4)CN[C@H](C(=O)O)C5)nc(N)n3)C(F)(F)F)cc2)ccc1C` [Example 55n, (S)-8-(2-amino-6-((R)-2,2,2-trifluoro-1-(3′-methoxy-4′-methyl-[1,1′-biphenyl]-4-yl)ethoxy)pyrimidin-4-yl)-2,8-diazaspiro[4.5]decane-3-carboxylic acid], for which the pIC50 under setting [1] was 5.52 to 6.52.
As for `COc1cc(C)cc(-c2ccc([C@@H](Oc3cc(N4CCC5(CC4)CN[C@H](C(=O)O)C5)nc(N)n3)C(F)(F)F)cc2)c1` [Example 55o, (S)-8-(2-amino-6-((R)-2,2,2-trifluoro-1-(3′-methoxy-5′-methyl-[1,1′-biphenyl]-4-yl)ethoxy)pyrimidin-4-yl)-2,8-diazaspiro[4.5]decane-3-carboxylic acid], the pIC50 under setting [1] is 6.52 to 7.30.
For `COc1ccc(C)c(-c2ccc([C@@H](Oc3cc(N4CCC5(CC4)CN[C@H](C(=O)O)C5)nc(N)n3)C(F)(F)F)cc2)c1` [Example 55p, (S)-8-(2-amino-6-((R)-2,2,2-trifluoro-1-(5′-methoxy-2′-methyl-[1,1′-biphenyl]-4-yl)ethoxy)pyrimidin-4-yl)-2,8-diazaspiro[4.5]decane-3-carboxylic acid], under setting [1], the pIC50 is 6.52 to 7.30.
Same read-out and setting: under `COc1ccc(-c2ccc([C@@H](Oc3cc(N4CCC5(CC4)CN[C@H](C(=O)O)C5)nc(N)n3)C(F)(F)F)cc2)cc1OC` [Example 55q, (S)-8-(2-amino-6-((R)-1-(3′,4′-dimethoxy-[1,1′-biphenyl]-4-yl)-2,2,2-trifluoroethoxy)pyrimidin-4-yl)-2,8-diazaspiro[4.5]decane-3-carboxylic acid] stands more than 7.30; under `COc1cc(-c2ccc([C@@H](Oc3cc(N4CCC5(CC4)CN[C@H](C(=O)O)C5)nc(N)n3)C(F)(F)F)cc2)ccc1C(=O)N1CCCC1` [Example 55r, (S)-8-(2-amino-6-((R)-2,2,2-trifluoro-1-(3′-methoxy-4′-(pyrrolidine-1-carbonyl)-[1,1′-biphenyl]-4-yl)ethoxy)pyrimidin-4-yl)-2,8-diazaspiro[4.5]decane-3-carboxylic acid], 6.52 to 7.30.
For the molecule `Nc1nc(O[C@H](c2ccc(-c3ccc4c(c3)COC4=O)cc2)C(F)(F)F)cc(N2CCC3(CC2)CN[C@H](C(=O)O)C3)n1` [Example 55s, (S)-8-(2-amino-6-((R)-2,2,2-trifluoro-1-(4-(1-oxo-1,3-dihydroisobenzofuran-5-yl)phenyl)ethoxy)pyrimidin-4-yl)-2,8-diazaspiro[4.5]decane-3-carboxylic acid], under setting [1], the pIC50 was more than 7.30.
The same measure, in the same setting: under `Nc1nc(O[C@H](c2ccc(-c3ccc4[nH]c(=O)ccc4c3)cc2)C(F)(F)F)cc(N2CCC3(CC2)CN[C@H](C(=O)O)C3)n1` [Example 55t, (S)-8-(2-amino-6-((R)-2,2,2-trifluoro-1-(4-(2-oxo-1,2-dihydroquinolin-6-yl)phenyl)ethoxy)pyrimidin-4-yl)-2,8-diazaspiro[4.5]decane-3-carboxylic acid] stands 6.52 to 7.30; under `Cn1c(=O)ccc2cc(-c3ccc([C@@H](Oc4cc(N5CCC6(CC5)CN[C@H](C(=O)O)C6)nc(N)n4)C(F)(F)F)cc3)ccc21` [Example 55u, (S)-8-(2-amino-6-((R)-2,2,2-trifluoro-1-(4-(1-methyl-2-oxo-1,2-dihydroquinolin-6-yl)phenyl)ethoxy)pyrimidin-4-yl)-2,8-diazaspiro[4.5]decane-3-carboxylic acid], 6.52 to 7.30.
Take `Nc1nc(O[C@H](c2ccc(-c3ccc4c(c3)CCC(=O)N4)cc2)C(F)(F)F)cc(N2CCC3(CC2)CN[C@H](C(=O)O)C3)n1` [Example 55v, (S)-8-(2-amino-6-((R)-2,2,2-trifluoro-1-(4-(2-oxo-1,2,3,4-tetrahydroquinolin-6-yl)phenyl)ethoxy)pyrimidin-4-yl)-2,8-diazaspiro[4.5]decane-3-carboxylic acid]: the pIC50 under setting [2] is more than 7.30.
Consider `Nc1nc(O[C@H](c2ccc(-c3ccc4[nH]ncc4c3)cc2)C(F)(F)F)cc(N2CCC3(CC2)CN[C@H](C(=O)O)C3)n1` [Example 55w, (S)-8-(6-((R)-1-(4-(1H-indazol-5-yl)phenyl)-2,2,2-trifluoroethoxy)-2-aminopyrimidin-4-yl)-2,8-diazaspiro[4.5]decane-3-carboxylic acid], for which the pIC50 under setting [2] is more than 7.30.
In the case of `Cc1nn(C)c2ccc(-c3ccc([C@@H](Oc4cc(N5CCC6(CC5)CN[C@H](C(=O)O)C6)nc(N)n4)C(F)(F)F)cc3)cc12` [Example 55x, (S)-8-(2-amino-6-((R)-1-(4-(1,3-dimethyl-1H-indazol-5-yl)phenyl)-2,2,2-trifluoroethoxy)pyrimidin-4-yl)-2,8-diazaspiro[4.5]decane-3-carboxylic acid], the pIC50 under setting [1] was 6.52 to 7.30.
Consider `Cc1cn(C)c2ccc(-c3ccc([C@@H](Oc4cc(N5CCC6(CC5)CN[C@H](C(=O)O)C6)nc(N)n4)C(F)(F)F)cc3)cc12` [Example 55y, (S)-8-(2-amino-6-((R)-1-(4-(1,3-dimethyl-1H-indol-5-yl)phenyl)-2,2,2-trifluoroethoxy)pyrimidin-4-yl)-2,8-diazaspiro[4.5]decane-3-carboxylic acid], for which the pIC50 under setting [1] is 6.52 to 7.30.
Still for that read-out and setting: the figure for `COc1cc(-c2ccc([C@@H](Oc3cc(N4CCC5(CC4)CN[C@H](C(=O)O)C5)nc(N)n3)C(F)(F)F)cc2)cc(C(F)(F)F)c1` [Example 55z, (S)-8-(2-amino-6-((R)-2,2,2-trifluoro-1-(3′-methoxy-5′-(trifluoromethyl)-[1,1′-biphenyl]-4-yl)ethoxy)pyrimidin-4-yl)-2,8-diazaspiro[4.5]decane-3-carboxylic acid] is 6.52 to 7.30; for `Nc1nc(O[C@H](c2ccc(-c3ccc4c(c3)NCCN4)cc2)C(F)(F)F)cc(N2CCC3(CC2)CN[C@H](C(=O)O)C3)n1` [Example 56, (S)-8-(2-amino-6-((R)-2,2,2-trifluoro-1-(4-(1,2,3,4-tetrahydroquinoxalin-6-yl)phenyl)ethoxy)pyrimidin-4-yl)-2,8-diazaspiro[4.5]decane-3-carboxylic acid] it is 6.52 to 7.30; for `Nc1nc(O[C@H](c2ccc3c(c2)CNCN3)C(F)(F)F)cc(N2CCC3(CC2)CN[C@H](C(=O)O)C3)n1` [Example 58, (S)-8-(2-amino-6-((R)-2,2,2-trifluoro-1-(1,2,3,4-tetrahydroquinazolin-6-yl)ethoxy)pyrimidin-4-yl)-2,8-diazaspiro[4.5]decane-3-carboxylic acid] it is 6.52 to 7.30.
Turning to `Nc1nc(O[C@H](c2ccc(Br)cc2)C(F)(F)F)cc(N2CCC3(CC2)CN[C@H](C(=O)O)C3)n1` [Example 59, (S)-8-(2-amino-6-((R)-1-(4-bromophenyl)-2,2,2-trifluoroethoxy)pyrimidin-4-yl)-2,8-diazaspiro[4.5]decane-3-carboxylic acid], the pIC50 under setting [1] is 5.52 to 6.52.
For `Nc1nc(O[C@H](c2ccc3ccccc3c2)C(F)(F)F)cc(N2CCC3(CC2)CN[C@H](C(=O)O)C3)n1` [Example 59b, (S)-8-(2-amino-6-((R)-2,2,2-trifluoro-1-(naphthalen-2-yl)ethoxy)pyrimidin-4-yl)-2,8-diazaspiro[4.5]decane-3-carboxylic acid], the pIC50 under setting [1] was 5.52 to 6.52.
On to `Cc1cc(-c2ccc3ncc(F)cc3c2)ccc1[C@@H](Oc1cc(N2CCC3(CC2)CN[C@H](C(=O)O)C3)nc(N)n1)C(F)(F)F` [Example 59c, (S)-8-(2-amino-6-((R)-2,2,2-trifluoro-1-(4-(3-fluoroquinolin-6-yl)-2-methylphenyl)ethoxy)pyrimidin-4-yl)-2,8-diazaspiro[4.5]decane-3-carboxylic acid], for which the pIC50 under setting [1] is 6.52 to 7.30.
As for `CCc1cc(-c2ccc3ncc(F)cc3c2)ccc1[C@@H](Oc1cc(N2CCC3(CC2)CN[C@H](C(=O)O)C3)nc(N)n1)C(F)(F)F` [Example 59d, (S)-8-(2-amino-6-((R)-1-(2-ethyl-4-(3-fluoroquinolin-6-yl)phenyl)-2,2,2-trifluoroethoxy)pyrimidin-4-yl)-2,8-diazaspiro[4.5]decane-3-carboxylic acid], the pIC50 under setting [1] was 6.52 to 7.30.
